Assay results reported in paper PMC5571359, “Screening the Medicines for Malaria Venture Pathogen Box across Multiple Pathogens Reclassifies Starting Points for Open-Source Drug Discovery” (Antimicrobial Agents and Chemotherapy, 2017).
Read-outs that look alike come from different tables or passages of the source.

Assays:
[1] = tested on: NF54-pfs16-LUC-GFP stage IV gametocytes; assay: Plasmodium falciparum late stage gametocyte (LSG) image-based assay; assay type: cell-based; details: for IC50 / inhibition at 20 µM: Plasmodium falciparum; for inhibition at 20 µM: NF54, read-out: percent inhibition at the top screening dose, P. falciparum NF54 LSG
[2] = tested on: Plasmodium falciparum 3D7 asexual blood stage; details: for IC50: read-out: Antiplasmodial IC50 (ABS), PBox compounds, P. falciparum 3D7; for screening concentrations at which red blood cell (RBC) lysis was witnessed: human
P. falciparum ABS = details: cited from earlier work; for EC50: ChEMBL Data
[3] = tested on: P. falciparum stage V gametocytes; details: cited from earlier work; for IC50: stage V gametocytes, ref PBox supporting information, read-out: PF stage V GAMS PBox IC50
liver stage = details: ref Pbox supporting information; cited from earlier work
[4] = tested on: T. cruzi intracellular amastigotes; assay: Intracellular anti-Trypanosoma cruzi image-based assay (amastigotes); assay type: cell-based; details: Trypanosoma cruzi
[5] = tested on: T. b. brucei 427 bloodstream trypanosomes; assay: T. b. brucei resazurin viability assay; assay type: cell-based, Trypanosoma brucei brucei; details: Trypanosoma brucei; for inhibition at 20 µM: read-out: percent inhibition at the top screening dose, T. brucei brucei
HepG2 = details: ref PBox supporting information, cited from earlier work; for CC50: read-out: HepG2 PBox CC50 µM
[6] = tested on: Plasmodium falciparum 3D7 asexual blood stage; assay: microbe, parasite or virus in culture
HEK293 cells = assay: HEK293 resazurin cell cytotoxicity assay; details: for IC50: Homo sapiens; for percent inhibition at the top screening dose, HEK293: reference compound set
3T3 host cells = assay: T. cruzi assay, activity against 3T3 host cells; assay type: cell-based; details: reference compound set; for IC50: IA = inactive at 16.4 μM
Procedure: page 4: […] Puromycin, 71 chloroquine, artesunate, DHA, pyronaridine and pyrimethamine were also tested in 72 IC50 format to act as internal reference compounds. 73 74 Intracellular anti-Trypanosoma cruzi Assay Protocol 75 The host cell cytoplasm, in which the parasite resides, is identified by the fluorescent 76 marker, HCS CellMask Green. Parasite and host cell nuclei are detected with the 77 fluorescent DNA intercalator, Hoechst 33342. The Opera® High Content Screening 78 System is used to take images of wells and a spot detection algorithm is used to 79 identify parasites within the cytoplasm. 80 81 Briefly, 1x 10^3 3T3 cells were added to collagen coated 384-well plates and following 82 24 hrs incubation at 37 °C, a multiplicity of infection (MOI) of 5:1 parasite: host cells 83 were added to the plate using a Multidrop liquid handler. Following additional 24 hrs 84 incubation, extracellular parasites were washed from the plates and RPMI with no […] 86 added to all wells. The final volume of media in the primary screening assay, before 87 addition of compound, was modified slightly to 55 µL. One µL of compounds, provided 88 by Compounds Australia, were diluted by the addition of 25 µL of sterile water. This […] 91 donovani). Five microliters of this dilution was added to assay plates. The final […] The final concentrations of compounds in the […] Following 48 hrs incubation in the presence 97 of compounds, wells were fixed, stained and read on the Opera® High Content 98 Screening System to assess compound activity. 99 The Z′-factor, as a measure of assay reproducibility, was determined from a plate […] The positive control used to calculate activity against […] To 103 assess the sensitivity of the T. cruzi assay, activity of the reference compounds 104 benznidazole, NFX, posaconazole and puromycin were determined. […] 108 resazurin as a measure of parasite viability. 109 T. b. brucei trypanosomes were cultured in vitro in HM1-9 medium supplemented with […] Fifty-five µL of logarithmic phase […] 112 incubated for 24 hrs at 37°C /5% CO2. Compounds were subsequently added to the […] Following […] 116 37°C / 5% CO2 followed by 22 hrs at room temperature. […] The percent

[7] = tested on: L. donovani MHOM/IN/80/DD8 intracellular amastigotes; assay: Leishmania donovani intracellular amastigote assay in THP-1 cells; assay type: cell-based; details: for inhibition at 20 µM / IC50: Leishmania donovani, reference compound set; for inhibition at 20 µM: THP-1; for IC50: IA = inactive at 20 μM
[8] = 3D7, read-out: Antiplasmodial IC50 (ABS), PBox compounds, P. falciparum 3D7
[9] = HEK293, read-out: HEK % Inhibition 20uM/IC50 Discovery Biology (IA)
[10] = 3D7, read-out: activity against P. falciparum (novel antiplasmodial actives of the tuberculosis set)
[11] = P. falciparum 3D7, ref PBox supporting information, read-out: Pf 3D7 Pbox IC50
[12] = NF54, read-out: IC50 P. falciparum NF54 LSG, reference compound set, 11-point dose response, IA = inactive at 20 μM
[13] = reference compound set, IA = inactive at 16.4 μM, read-out: IC50 T. cruzi intracellular amastigotes
[14] = first test, 20 μM, read-out: percent inhibition at the top screening dose, L. donovani n = 1
[15] = second test, 20 μM, read-out: percent inhibition at the top screening dose, L. donovani n = 2
[16] = 3D7, read-out: IC50 P. falciparum 3D7 ABS
[17] = reference compound set, IA = inactive at 20 μM, read-out: IC50 T. brucei brucei trypomastigotes
[18] = THP-1, read-out: IC50 L. donovani n = 1, first test
[19] = THP-1, read-out: IC50 L. donovani n = 2, second test

O=C(C1CCN(c2nnnn2-c2ccccc2)CC1)N1CCc2ccccc2C1 [MMV009135]
activity in the Discovery Biology stage IV gametocyte (LSG) assay [1]: did not show any activity
activity in the Discovery Biology ABS assay [2]: did not show any activity
EC50 (P. falciparum ABS; NITD, read-out: NITD (ref 94) EC50): 1300 nM
EC50 (P. falciparum ABS; TCMDC, read-out: TCMDC (ref 93) EX50): 710 nM

Cc1ccc(-c2cc(C(=O)Nc3cccnc3)c3cc(Br)ccc3n2)cc1 [MMV016838]
activity in the Discovery Biology stage IV gametocyte (LSG) assay [1]: not to be active
activity in the Discovery Biology ABS assay [2]: not to be active
IC50 (P. falciparum ABS; Pf 3D7, ref Pathogen Box supporting information, read-out: Pf 3D7 Pbox IC50): 100 nM
activity against gametocytes (stage V), PBox supporting information ([3]; ref Pbox supporting information): known to be active
activity against liver stage, PBox supporting information (liver stage): known to be active

COc1ccc(OC)c(NCc2ccc3nc(N)nc(N)c3c2Cl)c1 [MMV675968]
IC50 ([4]; intracellular amastigotes, read-out: T cruzi Discovery Biology IC50): 1330 nM
IC50 ([5]; read-out: T b.brucei Discovery Biology IC50): 2070 nM
SI HEK (P. falciparum 3D7) ([2]; HEK293): 7.4
SI HepG2 (P. falciparum 3D7) ([2]; HEPG2 (PBox data)): 113
HepG2 PBox CC20 (HepG2; HepG2): 3400 nM
IC50 [6, 8]: 30 nM
IC50 ([6]; 3D7, read-out: Pf 3D7 Discovery Biology IC50, P. falciparum 3D7 asexual blood stage): 33 nM
IC50 (HEK293 cells; HEK293, read-out: HEK % Discovery Biology IC50): 221 nM

C[C@H](C(N)=O)N1CCCC[C@@H]1c1ccc(OCc2cccc(F)c2)cc1 [MMV676270]
activity in the Discovery Biology stage IV gametocyte (LSG) assay [1]: no activity
activity in the Discovery Biology ABS assay [2]: no activity
EC50 (P. falciparum ABS; P. falciparum, read-out: TCMDC (ref 93) EX50): 990 nM
IC50 (P. falciparum ABS; read-out: literature ABS activity): 990 nM
IC50 (liver stage): 1770 nM
CC50 (HepG2): > 10 µM
IC50 (HEK293 cells; [9]): > 20000 nM

c1ccc(C[C@@H]2CN(c3nccc(Oc4ccc(-n5ccnc5)cc4)n3)CCN2)cc1 [MMV687749]
IC50 [2]: 2080 nM
CC50 (HepG2; HepG2 cytotoxicity): 29 µM
IC50 [6, 8]: 2000 nM
IC50 [6, 10]: < 2000 nM

Cc1cnc(N2CCN[C@@H](Cc3ccccc3)C2)nc1Oc1ccc(-n2ccnc2)cc1 [MMV687765]
IC50 ([1]; NF54, read-out: Pf Stage IV GAMS Discovery Biology IC50 µM, stage IV gametocytes, Discovery Biology): 4.28 µM
IC50 [2]: 2010 nM
CC50 (HepG2; HepG2 cytotoxicity): 14.1 µM
IC50 [6, 8]: 2000 nM
IC50 [6, 10]: < 2000 nM

CCc1ccc(C(NCc2nc(N)nc(N(C)C)n2)C(C)C)cc1 (centres unmarked) [MMV1019989]
screening concentrations at which red blood cell (RBC) lysis was witnessed [2]: ≥ 2 µM
IC50 (P. falciparum ABS; [11]): > 2000 nM
IC50 [3]: 76 nM
IC50 (HEK293 cells; [9]): > 20000 nM

CNC(=O)CNc1nc(-c2ccccn2)nc2scc(-c3ccccc3)c12 [MMV1029203]
screening concentrations at which red blood cell (RBC) lysis was witnessed [2]: ≥ 2 µM
IC50 (P. falciparum ABS; [11]): > 2000 nM
IC50 [3]: 840 nM
IC50 (HEK293 cells; [9]): > 20000 nM

CCNC(=O)C(C)Nc1nc(-c2cccnc2)nc2sc(C)c(C)c12 (centres unmarked) [MMV1037162]
screening concentrations at which red blood cell (RBC) lysis was witnessed [2]: ≥ 2 µM
IC50 (P. falciparum ABS; [11]): > 2000 nM
IC50 [3]: 610 nM
IC50 (HEK293 cells; [9]): > 20000 nM

CC(=O)Oc1ccccc1C(=O)Nc1ncc([N+](=O)[O-])s1 [Nitazoxanide, reference compound]
IC50 [1, 12]: > 20 µM
IC50 [4, 13]: > 16400 nM
IC50 (3T3 host cells): > 16400 nM
inhibition at 20 µM ([5]; reference compound set): 41%
inhibition at 20 µM [7, 14]: 44%
inhibition at 20 µM [7, 15]: 41%
IC50 [6, 16]: > 20000 nM

N=C(N)c1ccc(OCCCCCOc2ccc(C(=N)N)cc2)cc1 [Pentamidine, reference compound]
IC50 [1, 12]: 1.43 µM
IC50 [4, 13]: > 16400 nM
IC50 (3T3 host cells): > 16400 nM
IC50 ([5]; in-house control stock, not the PBox sample, read-out: IC50 of standard in-house assay control, T. brucei brucei): < 1 nM
IC50 [5, 17]: < 20 nM
IC50 [7, 18]: > 20000 nM
IC50 [7, 19]: > 20000 nM
activity against L. donovani at 20 μM ([7]; PBox sample, 20 μM): did not show activity
IC50 [6, 16]: 10 nM
percent inhibition at the top screening dose, HEK293 (HEK293 cells): 75%

CC[C@@H]([C@H](C)O)n1ncn(-c2ccc(N3CCN(c4ccc(OC[C@@H]5CO[C@@](Cn6cncn6)(c6ccc(F)cc6F)C5)cc4)CC3)cc2)c1=O [Posaconazole, reference compound]
inhibition at 20 µM [1]: 63%
IC50 ([4]; in-house control stock, not the PBox sample, read-out: IC50 of standard in-house assay control, T. cruzi amastigotes): 1 nM
IC50 [4, 13]: 172 nM
Emax ([4]; reference compound set, read-out: T. cruzi Emax (maximal % inhibition plateau in dose response curve)): 73%
IC50 (3T3 host cells): > 16400 nM
IC50 [5, 17]: > 20000 nM
inhibition at 20 µM [7, 14]: 64%
inhibition at 20 µM [7, 15]: 60%
IC50 [6, 16]: 4100 nM

O=C(C1CCCCC1)N1CC(=O)N2CCc3ccccc3C2C1 (centres unmarked) [Praziquantel, reference compound]
IC50 [1, 12]: > 20 µM
IC50 [4, 13]: > 16400 nM
IC50 (3T3 host cells): > 16400 nM
IC50 [5, 17]: > 20000 nM
IC50 [7, 18]: > 20000 nM
IC50 [7, 19]: > 20000 nM
IC50 [6, 16]: > 20000 nM

COc1cc(NC(C)CCCN)c2ncccc2c1 (centres unmarked) [Primaquine, reference compound]
inhibition at 20 µM [1]: 96%
inhibition at 16.4 µM ([4]; reference compound set, 16.4 μM, read-out: percent inhibition at the top screening dose, T. cruzi intracellular amastigotes): 94%
inhibition at 16.4 µM (3T3 host cells; 16.4 μM, read-out: percent inhibition at the top screening dose, 3T3 host cells): 73%
inhibition at 20 µM ([5]; reference compound set): 91%
inhibition at 20 µM [7, 14]: 33%
inhibition at 20 µM [7, 15]: 79%
inhibition at 20 µM ([6]; 3D7, read-out: percent inhibition at the top screening dose, P. falciparum 3D7 ABS): 91%

CCN(CC)CCCCCCNc1cc(OC)cc2c(C)ccnc12 [Sitamaquine, reference compound]
IC50 [1, 12]: 0.982 µM
IC50 [4, 13]: > 16400 nM
IC50 (3T3 host cells): > 16400 nM
inhibition at 20 µM ([5]; reference compound set): 91%
IC50 [7, 18]: > 20000 nM
IC50 [7, 19]: > 20000 nM
IC50 ([6]; 3D7, read-out: IC50 P. falciparum 3D7 ABS, reference compound set, 11-point dose response, IA = inactive at 20 μM): 2030 nM
percent inhibition at the top screening dose, HEK293 (HEK293 cells): 100%

[H]/N=C(/N)N[C@H]1[C@H](O)[C@@H](O)[C@H](O[C@@H]2O[C@@H](C)[C@](O)(C=O)[C@H]2O[C@@H]2O[C@@H](CO)[C@H](O)[C@@H](O)[C@@H]2NC)[C@@H](N/C(N)=N\[H])[C@@H]1O [Streptomycin, reference compound]
inhibition at 20 µM [1]: 41%
IC50 [4, 13]: > 16400 nM
IC50 (3T3 host cells): > 16400 nM
IC50 [5, 17]: > 20000 nM
IC50 [7, 18]: > 20000 nM
IC50 [7, 19]: > 20000 nM
IC50 [6, 16]: > 20000 nM

Cc1ccc(C(=O)Nc2ccc(S(=O)(=O)O)c3cc(S(=O)(=O)O)cc(S(=O)(=O)O)c23)cc1NC(=O)c1cccc(NC(=O)Nc2cccc(C(=O)Nc3cc(C(=O)Nc4ccc(S(=O)(=O)O)c5cc(S(=O)(=O)O)cc(S(=O)(=O)O)c45)ccc3C)c2)c1 [Suramin, reference compound]
IC50 [1, 12]: > 20 µM
IC50 [4, 13]: > 16400 nM
IC50 (3T3 host cells): > 16400 nM
IC50 ([5]; read-out: IC50 T. brucei brucei trypomastigotes): 110 nM
IC50 [7, 18]: > 20000 nM
IC50 [7, 19]: > 20000 nM
IC50 [6, 16]: > 20000 nM
